For data set [1] the following is noted: rat, in vivo, po; cited from earlier work.
The format of data set [2] is physicochemical. The settings on record: 12 h. On the procedure: The LCMS system was operated using a LCMS-8060 (Shimadzu, Kyoto, Japan) equipped with a C18 reversed phase column, Synergi 4 µm Fusion-RP 80 Å 50 × 2 mm (Phenomenex, Torrance, CA). The column oven was maintained at 40 °C and operated using a mobile phase consisting of 0.2% formic acid in water (solvent A) and 100% methanol (solvent B), with a gradient system (0–0.5 min 10% B, 0.5–1.5 min increase to 90% B, 1.5–2.5 min 90% B, 2.5–3.5 min decrease to 10% B, 3.5–4.5 min 10% B), at a flow rate of 0.5 mL/min, with a 10 μL injection volume. The mass spectrometer was a triple quadrupole with negative mode electrospray ionization (ESI). […] All the operations, acquisition and analysis of data were controlled by LabSolution software version 5.86 (Shimadzu, Japan). The LCMS method was validated for accuracy, precision, recovery and stability according to the guidance on bioanalytical method validation recommended by the FDA (USFDA [2018]).

For data set [3] the following is noted: predicted; ref PubChem [2004]; cited from earlier work.
Data set [4] relates to SARS-CoV-2-infected Vero E6 cells. More on the design: method as in Kanjanasirirat et al. [2020]. The settings on record: ref Kanjanasirirat et al. [2020]; cited from earlier work.
Another data set is described as follows: in vivo. The settings on record: male, beagle, dog.
The conditions of data set [5]: dog, in vivo, iv, 1 mg/kg.
The subject of data set [6] is SARS-CoV-2-infected Calu-3 cells. More on the design: method as in Sa-ngiamsuntorn et al. [2021]. The settings on record: ref Sa-ngiamsuntorn et al. [2021]; cited from earlier work.
In another data set the test system is SARS-CoV-2 infection. Set-up: method as in Ansems et al. [2021]. The settings on record: hospitalized patients with SARS-CoV-2 infection; ref Ansems et al. [2021]; cited from earlier work.
The next data set concerns COVID-19. Set-up: method as in Jayk Bernal et al. [2021]. The note with it: ref Jayk Bernal et al. [2021]; cited from earlier work.

Where two headings read alike, the source gives them in different places.

For the compound `COc1cc(O)c(C(=O)[C@@H]2[C@H](CC=C(C)C)C(C)=CC[C@H]2c2ccccc2)c(O)c1` [Panduratin A, panduratin A], in data set [1], the Tissue distribution result is “distribution of panduratin A to various tissues, including skin, lung, heart, gum, liver, spleen, kidney and brain”. For the same compound, in data set [2] (10 µg/L), the “Stability, Accuracy (%RE)” value came to 9.75 %RE and the “Stability, mean concentration found” value is 10.98 µg/L. For the same compound, in data set [2] (150 µg/L), the “Stability, Accuracy (%RE)” value amounted to 4.48 %RE and the “Stability, mean concentration found” value was determined as 156.72 µg/L. Also, in data set [2] (600 µg/L), the “Stability, Accuracy (%RE)” value amounted to 4.76 %RE and the “Stability, mean concentration found” value is given as 628.57 µg/L. Besides, in [3], the Hydrogen bond acceptors result is listed as “four” and the Hydrogen bond donors result is recorded as “two”. Besides, in data set [4], the IC50 (commonly the point on the concentration scale where inhibition reaches its midpoint) is 810 nM. Further, the half-life (as a rule, the time in which the quantity being followed falls by half) in “in vivo” lay in the range of 10 to 15 h. Moreover, in the data set “in vivo” (iv, 1 mg/kg), the AUC(0-inf) (commonly total exposure, with the tail of the curve extrapolated) is 209 µg·h/mL; the exposure AUC(0-t) (as a rule, the area under the concentration-time curve up to a stated or last time point) is 181 µg·h/mL; the MRT (usually a mean duration of stay, worked out from the concentration-time curve) stood at 23.9 ± 3.27 h; the Vd (in general, a proportionality between amount in the body and measured concentration, not a real space) is 0.1 ± 0.01 L/kg. Moreover, in the data set “in vivo” (iv, 1 mg/kg), the clearance (usually the volume of plasma or blood freed of the substance per unit of time) was 0.167 mL/min/kg, the concentration at 72 h is 0.1 to 0.2 µg/mL and the half-life was 15.2 h. The Cmax (in general, the maximum level reached in the sampled fluid or tissue) in the data set “in vivo” (iv, 1 mg/kg, Cmax) was around 100 µg/mL. Further, in data set [5], the ALT is reported as 44 ± 7 U/L, the AST was found to be 24 ± 6 U/L, the Alkaline phosphatase was found to be 35 ± 4 U/L and the Blood urea nitrogen was found to be 11.9 ± 1.6 mg/dL. For the same compound, in data set [5], the Creatinine amounted to 0.6 ± 0.1 mg/dL, the Haemoglobin is reported as 14.2 ± 1.3 g/dL, the Physical appearance result is given as “Normal” and the Platelet was 241 ± 44 x 10^3/µL. For the same compound, in data set [5], the Red blood cell is on record as 6.03 ± 0.66 x 10^6/µL and the White blood cell was 7.83 ± 1.09 x 10^3/µL.
For `C=C1CC[C@@H]2[C@](C)(CO)[C@H](O)CC[C@@]2(C)[C@@H]1C/C=C1/C(=O)OC[C@H]1O` [andrographolide], the IC50 in [6] is 34 nM.
`CCC(CC)COC(=O)[C@H](C)N[P@](=O)(OC[C@H]1O[C@@](C#N)(c2ccc3c(N)ncnn23)[C@H](O)[C@@H]1O)Oc1ccccc1` [remdesivir, reference compound]: the “Effect on all-cause mortality at up to day 28” value with SARS-CoV-2 infection is listed as “little or no effect”. Besides, in [4], the IC50 was 2710 nM.
In the case of `CC(C)C(=O)OC[C@H]1O[C@@H](n2ccc(NO)nc2=O)[C@H](O)[C@@H]1O` [molnupiravir], in the data set with COVID-19, the “Reduced rate of hospitalization or death compared to placebo” value is 30%.

Source of the values: PMC10064817 (Pharmaceutical Biology, 2023).
